The test system of this experiment is triple-negative human breast cancer cell line MDA-MB-468. Description: XTT cell killing / growth inhibition assay, MDA-MB-468. The note with it: for IC50 compared with that of the parental compound IBR2 (in words): MDA-MB-468; for IC50 / growth inhibition activity (in words): MDA-MB-468, XTT assay; for IC50: four-day drug treatment, read-out: IC50; for pIC50: growth inhibition, raw dataset for SAR analysis. Format: cell-based. How it is done:
Standard XTT assays with a four-day drug treatment procedure were performed to measure the dose dependent cytotoxicity of IBR analogs in cultured cells. In brief, cells were plated on 96-well dishes one day before the drug treatment, followed by drug treatment on day 2 and XTT assay on day 6 after drug addition by using a commercial cell proliferation kit (Roche Scientific) following the instructions.
Triplicate sets were measured and compiled for final data presentation.
To test the possibility of inhibiting triple-negative breast cancer, the newly synthesized IBR2 analogues IBR101-124 were screened of their growth inhibition abilities using an XTT assay.

The term IC50 denotes the midpoint of a concentration-inhibition curve. As usually defined, the pIC50 is −log10 of the IC50, conventionally taken in molar units. A low value points to a high IC50. Take `COc1nccc2c(C3c4ccccc4C=CN3S(=O)(=O)Cc3ccccc3)c[nH]c12` (racemic) [IBR123]: the “IC50 compared with that of the parental compound IBR2 (in words)” value (“IC50 compared with that” for short) is on record as “significantly lower”, the IC50 amounted to 6.3 µM and the pIC50 was found to be 5.20.
For `O=S(=O)(Cc1ccccc1)N1CCc2ccccc2[C@@H]1c1c[nH]c2ccccc12` [IBR101], in that order: “slightly lower”, 11.7 µM and 4.93.
The like results for `O=S(=O)(Cc1ccccc1)N1CCc2ccccc2[C@H]1c1c[nH]c2ccccc12` [IBR102] were, in that order, “slightly lower”, 13.2 µM and 4.88.
Take `O=S(=O)(Cc1ccccc1F)N1CCc2ccccc2[C@@H]1c1c[nH]c2ccccc12` [IBR103]: the “IC50 compared with that” value is “slightly lower”, the IC50 was determined as 12.7 µM and the pIC50 worked out at 4.90.
With `O=S(=O)(Cc1ccccc1F)N1CCc2ccccc2[C@H]1c1c[nH]c2ccccc12` [IBR104], the IC50 was determined as 19.2 µM and the pIC50 came out at 4.72.
For the molecule `O=S(=O)(Cc1cccc(F)c1)N1CCc2ccccc2[C@@H]1c1c[nH]c2ccccc12` [IBR105], the “IC50 compared with that” value was “slightly lower”, the IC50 worked out at 14.2 µM and the pIC50 was determined as 4.85.
Take `O=S(=O)(Cc1cccc(F)c1)N1CCc2ccccc2[C@H]1c1c[nH]c2ccccc12` [IBR106]: the IC50 amounted to 17.2 µM and the pIC50 is 4.76.
Turning to `O=S(=O)(Cc1ccc(F)cc1)N1CCc2ccccc2[C@@H]1c1c[nH]c2ccccc12` [IBR107], the “IC50 compared with that” value is on record as “slightly lower”, the IC50 was found to be 11.2 µM and the negative-log IC50 (pIC50) is recorded as 4.95.
In the case of `O=S(=O)(Cc1ccc(F)cc1)N1CCc2ccccc2[C@H]1c1c[nH]c2ccccc12` [IBR108], the IC50 amounted to 25.7 µM and the pIC50 is given as 4.59.
As for `O=S(=O)(Cc1ccccc1C(F)(F)F)N1CCc2ccccc2[C@@H]1c1c[nH]c2ccccc12` [IBR109], the “IC50 compared with that” value was “slightly lower”, the IC50 amounted to 14.8 µM and the pIC50 worked out at 4.83.
`O=S(=O)(Cc1ccccc1C(F)(F)F)N1CCc2ccccc2[C@H]1c1c[nH]c2ccccc12` [IBR110]: the IC50 came to 16.7 µM and the pIC50 is on record as 4.78.
On to `O=S(=O)(Cc1cccc(C(F)(F)F)c1)N1CCc2ccccc2[C@@H]1c1c[nH]c2ccccc12` [IBR111], for which the “IC50 compared with that” value is on record as “slightly lower”, the IC50 worked out at 11.1 µM and the pIC50 came out at 4.95.
For the molecule `O=S(=O)(Cc1cccc(C(F)(F)F)c1)N1CCc2ccccc2[C@H]1c1c[nH]c2ccccc12` [IBR112], the IC50 was determined as 22.2 µM and the pIC50 came out at 4.65.
Consider `O=S(=O)(Cc1ccc(C(F)(F)F)cc1)N1CCc2ccccc2[C@@H]1c1c[nH]c2ccccc12` [IBR113], for which the “IC50 compared with that” value is reported as “slightly lower”, the IC50 was 13.6 µM and the pIC50 stood at 4.87.
In the case of `O=S(=O)(Cc1ccc(C(F)(F)F)cc1)N1CCc2ccccc2[C@H]1c1c[nH]c2ccccc12` [IBR114], the IC50 turned out to be 20.7 µM and the pIC50 amounted to 4.68.
`O=S(=O)(Cc1ccccc1)N1CC=Cc2ccccc2[C@@H]1c1c[nH]c2ccccc12` [IBR115]: the “IC50 compared with that” value is listed as “slightly lower”, the “growth inhibition activity (in words)” value is on record as “minimal change of activity”, the IC50 turned out to be 14.7 µM and the pIC50 was 4.83.
With `O=S(=O)(Cc1ccccc1)N1CC=Cc2ccccc2[C@H]1c1c[nH]c2ccccc12` [IBR116], the “growth inhibition activity (in words)” value was “almost complete loss of function”, the IC50 was > 50 µM and the pIC50 is recorded as ≤ 4.30.
